Test results as given in article PMC11732138, “Gold complex compounds that inhibit drug-resistant Staphylococcus aureus by targeting thioredoxin reductase” (Frontiers in Antibiotics, 2023).
Values after ≈ are worked out from the molar mass of the structure shown. “Also recorded” adds a separate entry of the source. Read-outs that look alike come from different tables or passages of the source.

Columns and labels:
HKC cells = assay: Immortalized cell line toxicity (WST-1), HKC; format: cell-based, human; conditions: HKC kidney cell line, 24 h
Procedure: (§1) A hepatic cell line (HepG2), lung carcinoma cell line (A549), and kidney cell line (HKC) were used to test the cytotoxicity of investigational compounds. Cells were grown in DMEM (ThermoFisher Scientific, Waltham, MA, USA) supplemented with 10% fetal bovine serum (FBS) (ThermoFisher Scientific, Waltham, MA, USA) and 1% penicillin/streptomycin (ThermoFisher Scientific, Waltham, MA, USA) and maintained at 37°C in 5% CO2. 2.5x10^4 cells in 100 μL of DMEM with 10% FBS were added to wells of 96-well plates 24 h prior to the experiments. Compounds were serially diluted in […], and 100 μL antibiotic-free DMEM was added to the monolayer and incubated at 37°C in 5% CO2 for 24 h. At 2 h before the end of the incubation period, 10 μL of 2-(4-iodophenyl)-3-(4-nitrophenyl)-5-(2, 4-disulfophenyl)-2H-tetrazolium (WST-1) solution (Roche, Mannheim, Germany) was added to each well. WST-1 reduction was monitored at 450 nm using a Vmax microplate reader. Assays were performed in triplicate, and the percentage survival was calculated by comparing the compound-treated wells to the DMSO vehicle control wells.

[1] = Compound solubility in PBS; format: physicochemical; conditions: aqueous buffer
Procedure: Compound solubility in PBS. Compound solubility was measured in PBS. Briefly, serial dilutions of test compounds were prepared in DMSO at 100x the final concentration. Test compound solutions were diluted 100-fold into PBS in a 96-well plate and mixed. After 2 h, the presence of precipitate was detected by measuring absorbance at 540 nm.

HepG2 cells = assay: Immortalized cell line toxicity (WST-1), HepG2; format: cell-based, human; conditions: HepG2 liver cell line, 24 h
Procedure: as §1

[2] = Immortalized cell line toxicity (WST-1), the three cell lines together; format: cell-based; conditions: human, hkc, hepg2, a549 cells, HKC, HepG2, A549; read-out: toxicity to cell lines as multiple of the MIC
Procedure: as §1

[3] = Compound solubility in DMSO; format: physicochemical; conditions: organic solvent or mixture, turbidity at 540 nm, read-out: concentration at which reduced solubility began in DMSO
Procedure: To test compound solubility, stock solutions were made in triplicate at 50 mg/mL in DMSO. Two-fold serial dilutions of the test compounds were prepared at 50 μL volume in a 96-well assay plate and were kept in the incubator for 1 h. After incubation, the absorbance was measured at 540 nm using a Vmax microplate reader (Molecular Devices, Sunnyvale, CA, USA.) to detect turbidity.

S. aureus MW2 [4] = assay: Time to kill assay; format: cell-based, Staphylococcus aureus; conditions: 4 × MIC, 4 h; bactericidal = 3-log10-CFU/mL reduction
Procedure: S. aureus MW2, a methicillin-resistant S. aureus (MRSA) isolate, was used to determine the bacteriostatic/bactericidal properties of test compounds, as previously described ([Rajamuthiah et al., 2015]). Assays were carried out as 2 biological replicates with n=3 for each in 24 well plates (BD Biosciences, Franklin Lakes, NJ, USA). Briefly, S. aureus MW2 cells were streaked on TSB agar from a frozen glycerol stock, and after overnight incubation, a single colony was inoculated on 2 mL of TSB and incubated at 37°C with agitation. The overnight culture of S. aureus MW2 was centrifuged at 4000 g for 5 min and then washed twice with PBS and collected through centrifuged at 4000 g for 5 min. The PBS was discarded and cells were suspended in TSB and aliquoted into a 24-well plate at a density of 10^8 cells/mL as a 1 mL volume. Test compounds were added such that the final concentration was 4 × MIC, and the cultures were incubated at 37°C with agitation. At designated time intervals, 5 μL aliquots from each test condition were serially diluted in TSB and plated onto TSA (BD Biosciences, Franklin Lakes, NJ, USA). CFUs were enumerated after overnight incubation at 35°C, and data were plotted using GraphPad Prism 9.0 (San Diego, CA, USA) to report the means and standard deviation of growth as measured by CFU/mL.

hERG channel = hERG channel (Homo sapiens, UniProt Q12809); assay: hERG measurement (QPatch HTX patch clamp)
hERG channel, sequence (Q12809 whole entry): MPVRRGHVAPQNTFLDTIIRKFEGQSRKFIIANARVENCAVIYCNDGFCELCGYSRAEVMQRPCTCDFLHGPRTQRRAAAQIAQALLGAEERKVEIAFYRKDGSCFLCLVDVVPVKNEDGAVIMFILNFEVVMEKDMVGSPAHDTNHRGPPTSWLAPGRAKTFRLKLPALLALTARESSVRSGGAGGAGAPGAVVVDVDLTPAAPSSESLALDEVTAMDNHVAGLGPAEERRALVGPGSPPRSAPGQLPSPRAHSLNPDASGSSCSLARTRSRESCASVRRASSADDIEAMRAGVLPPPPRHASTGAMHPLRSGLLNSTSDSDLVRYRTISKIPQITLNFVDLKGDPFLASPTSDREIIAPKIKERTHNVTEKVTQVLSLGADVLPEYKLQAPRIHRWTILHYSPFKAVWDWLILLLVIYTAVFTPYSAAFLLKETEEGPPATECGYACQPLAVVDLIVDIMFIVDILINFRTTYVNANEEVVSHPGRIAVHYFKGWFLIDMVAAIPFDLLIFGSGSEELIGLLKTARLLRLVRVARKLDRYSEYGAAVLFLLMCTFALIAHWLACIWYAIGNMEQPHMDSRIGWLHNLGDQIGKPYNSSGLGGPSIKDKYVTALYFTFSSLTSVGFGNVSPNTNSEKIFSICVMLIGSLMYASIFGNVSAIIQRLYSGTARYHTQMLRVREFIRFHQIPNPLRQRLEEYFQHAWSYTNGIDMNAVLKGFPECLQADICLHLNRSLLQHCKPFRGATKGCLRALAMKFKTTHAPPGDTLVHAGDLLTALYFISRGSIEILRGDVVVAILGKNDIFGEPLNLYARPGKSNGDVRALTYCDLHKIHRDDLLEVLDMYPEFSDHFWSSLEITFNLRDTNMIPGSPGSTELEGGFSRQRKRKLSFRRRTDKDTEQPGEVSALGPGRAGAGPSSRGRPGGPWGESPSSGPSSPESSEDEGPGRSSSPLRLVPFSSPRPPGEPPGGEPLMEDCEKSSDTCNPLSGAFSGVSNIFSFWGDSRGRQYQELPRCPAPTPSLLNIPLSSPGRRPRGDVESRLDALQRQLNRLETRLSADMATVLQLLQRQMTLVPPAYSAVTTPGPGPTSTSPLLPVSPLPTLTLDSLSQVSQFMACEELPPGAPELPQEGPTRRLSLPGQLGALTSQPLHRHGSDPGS
Source text: QPatch HTX system (Sophion Biosciences A/S, Ballerup, Denmark) was used to examine hERG signaling (Cyprotex, Watertown, MA, USA). The system was primed with appropriate extracellular (NaCl, KCl, CaCl2, MgCl2, D-glucose, HEPES, pH 7.4) and intracellular (KCl, MgCl2, EGTA, MgATP, HEPES, pH 7.2) solutions before conducting the study in a 48 well plate (QPlate, Sophion Biosciences A/S, Ballerup, Denmark). All cell suspensions, buffers, and test compound solutions were kept at room temperature during the experiment. HEK293 cells stably transfected with hERG cDNA were washed and positioned into each well (recording chamber) of the QPlate. The QPatch system follows the general principles of conventional whole-cell patch-clamping: a high resistance seal is formed between the patch electrode, and an individual cell, the membrane across the electrode tip is then ruptured, and the whole-cell patch-clamp configuration is established. The standard voltage profile was as follows: step from -80 mV to –50 mV for 200 ms, +20 mV for 4.8 s, step to -50 mV for 5 s, then stepped to the holding potential of -80 mV. The step from -80 mV to the test command (+20 mV) results in an outward current (i.e., current flows out of the cell), and the step from the test command (+20 mV) to -50 mV results in the tail current (the tail current represents deactivation of the current overtime). Compound dilutions were prepared by diluting a DMSO solution (default 10 mM), followed by dilution into an extracellular buffer such that the final concentrations tested were 0.1, 1, and 10 μM (final DMSO concentration 0.1%). Perfusion solutions contained 0.05% Pluronic F-68 and were stored at room temperature for the duration of the experiment each day. The voltage protocol was run and recorded continuously during the experiment. Cells were treated with a vehicle for 3 min (i.e., 0.1% DMSO) followed by three increasing test substance concentrations (0.1, 1, and 10 μM). The test compounds were applied in triplicate at each concentration and tested in at least 2 cells (biological replicates). […]

[5] = test system: human primary hepatocytes; assay: Human primary hepatocytes toxicity; format: cell-based; conditions: 24 h, WST1
Procedure: Human primary hepatocytes toxicity. Cryopreserved human primary hepatocytes were purchased from the Cell Resource Core at Massachusetts General Hospital (Boston, MA, USA). Collagen sandwiched configuration was used to culture the thawed cells in 24-well plates. The 24-well plates were coated with rat tail collagen type I (Cell Recourse Core, MGH) and incubated for an hour before 4 x 10^5 live cells were plated and incubated at 37°C with 5% CO2 for 1 h to allow cells to attach to the collagen gel. After incubation, the medium was removed along with dead cells, and the remaining cells received 0.5 mL of hepatocyte culture medium containing Dulbecco’s modified Eagle’s medium (DMEM) media supplemented with 10% FBS, 0.5 U/mL insulin, 14 ng/mL glucagon, 20 ng/mL EGF, 7.5 µg/mL hydrocortisone and 200 U/mL penicillin-streptomycin. The cell cultures were incubated in a humidified, 5% CO2 incubator at 37°C. After 24 h, a top layer of collagen gel was poured over the hepatocytes attached to collagen on the bottom of the plate, making a sandwich model. After 1 h, investigational compounds at the designated concentrations were added and incubated for 24 h. Post incubation, hepatocyte WST1 (Roche, Basel, Switzerland) was added and incubated for 4 h. Cell staining was measured by recording the absorbance at 420 nm, measured using a Vmax microplate reader (Molecular Devices, San Jose, CA, USA.), and data were plotted using GraphPad Prism. Cells were tested in triplicate.

[6] = test system: renal proximal tubule epithelial cells; assay: Renal proximal tubule epithelial cell toxicity; format: cell-based, human
A549 cells = assay: Immortalized cell line toxicity (WST-1), A549; format: cell-based, human; conditions: A549 lung carcinoma cell line, 24 h
Procedure: as §1

S. aureus TrxR = S. aureus TrxR (Staphylococcus aureus, UniProt P66011); assay: TrxR (TrxB) enzymatic assay, DTNB to TNB conversion
S. aureus TrxR, sequence (P66011 whole entry): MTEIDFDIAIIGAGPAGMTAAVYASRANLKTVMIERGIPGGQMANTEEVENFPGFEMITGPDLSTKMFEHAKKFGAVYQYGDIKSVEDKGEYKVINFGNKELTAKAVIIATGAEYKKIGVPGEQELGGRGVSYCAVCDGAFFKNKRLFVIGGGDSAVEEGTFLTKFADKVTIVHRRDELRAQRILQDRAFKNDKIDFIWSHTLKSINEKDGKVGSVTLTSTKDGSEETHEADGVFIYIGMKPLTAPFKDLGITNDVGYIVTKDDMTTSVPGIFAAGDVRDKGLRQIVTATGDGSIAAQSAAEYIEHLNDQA
Procedure: TrxR specific inhibitory activity was evaluated using 40 μL of S. aureus TrxR enzyme (0.5 μg/μL) per 200 mL of the reaction mixture for 15 minutes, comparing auranofin to other sulfur-containing compounds (all tested at 10 μg/mL), including known anti-S. aureus compounds.
For the screening assay, diluted TrxR assay buffer (Cayman Chemical, Ann Arbor, MI) (100 μL) was mixed with the investigational compounds (20 μL) in a 96 well-plate format and combined with Sa-TrxB (40 μL; 0.5 μg/mL), DTNB (20 μL) and NADPH (20 μL). The reaction entailed combining NADPH and Sa-TrxB with DTNB, which was converted to TNB, producing a yellow color.

A. baumannii 17978 = assay: Broth microdilution MIC, A. baumannii; format: cell-based, Acinetobacter baumannii; conditions: Acinetobacter baumannii, 17978
Procedure: (§2) In vitro antibiotic susceptibilities were determined using the broth microdilution assay established by the Clinical and Laboratory Standards Institute ([Clinical and Laboratory Standards Institute, 2012]). Broth microdilution assays were carried out with 2 biological replicates, each in triplicate, Mueller–Hinton broth (MHB; BD Biosciences, Franklin Lakes, NJ, USA) with a total assay volume of 100 μL in 96-well plates (BD Biosciences, Franklin Lakes, NJ, USA). Two-fold serial dilutions of compounds were prepared at a range of 0.01– 64 μg/mL in 50 μL of MHB. The initial bacterial inoculum was adjusted to OD600 0.06, 50 μL was, added to the test compounds, and then incubated at 35°C for 18 h. Post incubation, OD600 was measured using a Vmax microplate reader (Molecular Devices, San Jose, CA), and the lowest concentration of test compound that suppressed bacterial growth was reported as the MIC. Broth culture from the MIC assay (10 μL) was plated on Mueller–Hinton agar (BD Biosciences, Franklin Lakes, NJ, USA), and colony-forming units (CFUs) were enumerated after overnight incubation at 37°C.

S. aureus MW2 [7] = assay: Broth microdilution MIC, S. aureus MW2; format: cell-based, Staphylococcus aureus; conditions: Staphylococcus aureus, MRSA, 18 h
Procedure: as §2

H. pylori 49503 = assay: Broth microdilution MIC, H. pylori; format: cell-based, Helicobacter pylori; conditions: Helicobacter pylori, 49503
Procedure: as §2

E. faecium ATCC E007 = assay: Broth microdilution MIC, E. faecium; format: cell-based, Enterococcus faecium; conditions: Enterococcus faecium, ATCCE007
Procedure: as §2

K. pneumoniae ATCC 77326 = assay: Broth microdilution MIC, K. pneumoniae; format: cell-based, Klebsiella pneumonia; conditions: Klebsiella pneumoniae, ATCC77326
Procedure: as §2

P. aeruginosa PA14 = assay: Broth microdilution MIC, P. aeruginosa; format: cell-based, Pseudomonas aeruginosa; conditions: Pseudomonas aeruginosa, PA14
Procedure: as §2

[8] = test system: S. aureus MW2 biofilm formation; assay: Biofilm formation inhibition; format: cell-based, Staphylococcus aureus; conditions: 24 h, Alamar Blue
Procedure: (§3) Diluted bacterial cells were added to 100 μL of test compounds (serially diluted 16 to 0 μg/mL) and incubated for 24 h to assess the biofilm formation inhibition. For the disruption of matured biofilm, diluted cells in 100 μL were added to the 96-well plate and incubated for 24 h with no agitation. […] Biofilm assays were completed in triplicate.

Enterobacter (EAE 2625) = assay: Broth microdilution MIC, Enterobacter; format: cell-based, Enterobacter spp.; conditions: Enterobacter
Procedure: as §2

[9] = test system: clinical isolates of S. aureus; assay: MIC against clinical isolates of S. aureus; format: cell-based; conditions: Staphylococcus aureus
Procedure: Broth microdilution assays were carried out with 2 biological replicates, each in triplicate, Mueller–Hinton broth (MHB; BD Biosciences, Franklin Lakes, NJ, USA) with a total assay volume of 100 μL in 96-well plates (BD Biosciences, Franklin Lakes, NJ, USA). […] The initial bacterial inoculum was adjusted to OD600 0.06, 50 μL was, added to the test compounds, and then incubated at 35°C for 18 h. Post incubation, OD600 was measured using a Vmax microplate reader (Molecular Devices, San Jose, CA), and the lowest concentration of test compound that suppressed bacterial growth was reported as the MIC.
Isolates were tested as 2 biological replicates.

mature S. aureus biofilm = assay: Disruption of mature biofilm; format: cell-based, Staphylococcus aureus; conditions: preformed 24 h biofilm, Alamar Blue
Procedure: as §3

With `CC(C)(C)c1ccc(S(=O)[O-])cc1.[Au+].c1ccc(P(c2ccccc2)c2ccccc2)cc1` [AU5] the LD50 (HKC cells) was “approximately 4 μg/mL”, the solubility at 2 h ([1]; PBS, 2 Hour, highest concentration with no detectable precipitate, read-out: Solubility Limit) was 3.13 µM and the solubility at 2 h ([1]; pbs, read-out: Solubility in PBS converted to mass concentration) was 2.03 µg/mL. For the same molecule, the LD50 (HepG2 cells) was “approximately 4 μg/mL”, the selectivity ratio at 24 h [2] was 16 and the solubility at 1 h [3] was 6.5 µg/mL. The “bactericidal versus bacteriostatic nature (time-to-kill kinetics)” value (S. aureus MW2 [4]) was “bactericidal; also recorded: bacteriocidal”, the IC50 (hERG channel) was 3160 nM and the LD50 [5] was roughly 6 µg/mL. For the same molecule, the LD50 ([6]; renal proximal tubule epithelial cells) was 2 µg/mL, the LD50 (A549 cells) was “approximately 4 μg/mL” and the IC50 (S. aureus TrxR) was 1830 nM.
Work on `CN[C@H](CC(C)C)C(=O)N[C@H]1C(=O)N[C@@H](CC(N)=O)C(=O)N[C@H]2C(=O)N[C@H]3C(=O)N[C@H](C(=O)N[C@H](C(=O)O)c4cc(O)cc(O)c4-c4cc3ccc4O)[C@H](O)c3ccc(c(Cl)c3)Oc3cc2cc(c3O[C@@H]2O[C@H](CO)[C@@H](O)[C@H](O)[C@H]2O[C@H]2C[C@](C)(N)[C@H](O)[C@H](C)O2)Oc2ccc(cc2Cl)[C@H]1O` [Vancomycin] yielded an MIC (A. baumannii 17978) greater than 64 µg/mL, an MIC (S. aureus MW2 [7]) of 1 µg/mL (≈ 0.69 µM) and an MIC (H. pylori 49503) greater than 64 µg/mL. For the same molecule, the MIC (E. faecium ATCC E007) was 1 µg/mL (≈ 0.69 µM), the MIC (K. pneumoniae ATCC 77326) was greater than 64 µg/mL and the MIC (P. aeruginosa PA14) was greater than 64 µg/mL. The “concentration that inhibited biofilm formation (P<0.01)” value [8] was 1 µg/mL, the “impact on renal proximal tubule epithelial cells (in words)” value ([6]; at the tested concentrations) was “did not impact” and the MIC (Enterobacter (EAE 2625)) was greater than 64 µg/mL. For the same molecule, the MIC ([9]; isolate BFSA12) was 1 µg/mL (≈ 0.69 µM), the MIC ([9]; isolate BFSA13) was 1 µg/mL (≈ 0.69 µM) and the MIC ([9]; isolate BFSA15) was 1 µg/mL (≈ 0.69 µM). It also gave an MIC ([9]; isolate BFSA16) of 1 µg/mL (≈ 0.69 µM), an MIC ([9]; isolate BFSA17) of 1 µg/mL (≈ 0.69 µM) and an MIC ([9]; isolate BFSA18) of 2 µg/mL (≈ 1.38 µM). The MIC ([9]; isolate BFSA19) was 1 µg/mL (≈ 0.69 µM), the MIC ([9]; isolate BFSA20) was 1 µg/mL (≈ 0.69 µM) and the MIC ([9]; isolate BFSA21) was 2 µg/mL (≈ 1.38 µM). The MIC ([9]; isolate BFSA22) was 2 µg/mL (≈ 1.38 µM), the MIC ([9]; isolate BFSA24) was 1 µg/mL (≈ 0.69 µM) and the MIC ([9]; isolate BFSA26) was 2 µg/mL (≈ 1.38 µM). The MIC ([9]; isolate BFSA29) was 1 µg/mL (≈ 0.69 µM), the MIC ([9]; isolate BFSA30) was 1 µg/mL (≈ 0.69 µM) and the MIC ([9]; isolate BFSA31) was 2 µg/mL (≈ 1.38 µM). The MIC ([9]; isolate BFSA32) was 2 µg/mL (≈ 1.38 µM), the MIC ([9]; isolate BFSA33) was 2 µg/mL (≈ 1.38 µM) and the MIC ([9]; isolate BFSA34) was 1 µg/mL (≈ 0.69 µM). It also gave an MIC ([9]; isolate BFSA35) of 1 µg/mL (≈ 0.69 µM), an MIC ([9]; isolate BFSA36) of 2 µg/mL (≈ 1.38 µM) and an MIC ([9]; isolate BFSA37) of 1 µg/mL (≈ 0.69 µM). The MIC ([9]; isolate BFSA38) was 1 µg/mL (≈ 0.69 µM), the MIC ([9]; isolate BFSA39) was 1 µg/mL (≈ 0.69 µM) and the MIC ([9]; isolate BFSA148) was 1 µg/mL (≈ 0.69 µM). For the same molecule, the MIC ([9]; isolate BFSA149) was 2 µg/mL (≈ 1.38 µM), the MIC ([9]; isolate BFSA150) was 1 µg/mL (≈ 0.69 µM) and the MIC ([9]; isolate BFSA151) was 1 µg/mL (≈ 0.69 µM). For the same molecule, the MIC ([9]; isolate BFSA152) was 2 µg/mL (≈ 1.38 µM), the MIC ([9]; isolate BFSA153) was 2 µg/mL (≈ 1.38 µM) and the MIC ([9]; isolate BFSA155) was 1 µg/mL (≈ 0.69 µM). The “concentration that significantly reduced mature biofilm” value (mature S. aureus biofilm) was 2 µg/mL.
